Measurements: patent US20250295639A1, “METHODS FOR TREATING HEART DISEASES” (Cytokinetics, Incorporated, priority 2024, published 2025)

Tested on: patients with obstructive hypertrophic cardiomyopathy (oHCM)
Experiment: FOREST-HCM: standard of care (SoC) medications withdrawal in oHCM patients treated with aficamten
Type: in vivo, human
Text: Safety and Outcomes of Standard of Care Medications Withdrawal in Patients with Obstructive Hypertrophic Cardiomyopathy (oHCM) Treated with Aficamten in FOREST-HCM Trial. Standard of care (SoC) medications for the treatment of obstructive hypertrophic cardiomyopathy (oHCM) are currently recommended as first-line therapy. There are, however, off-target side-effects that often render them poorly tolerated. Patients were classified as receiving SoC therapy (both first line and second line) if treated with at least one drug (beta-blocker [BB], non-dihydropyridine calcium channel blocker [CCB], and/or disopyramide). Patients were eligible for protocol-guided SoC withdrawal after receiving a stable dose of aficamten for ≥4-weeks and after Week 12 of the study, at the discretion of the site investigator. Successful SoC withdrawal was defined as at least a 50% dose-reduction in one medication relative to baseline. All patients were also required to have ≥1 clinical, echocardiographic and biomarker assessment after attempted withdrawal. Adverse events (AE) were prospectively evaluated 1-2 weeks after any SoC withdrawal. […] Independent of attempted withdrawal, patients maintained relief of obstruction, improvement in symptoms and health status, and low cardiac biomarkers (Table 1). In the group with successful SoC withdrawal, no clinically significant differences were observed between pre and post SoC withdrawal attempt (Table 1). Overall, there was a modest reduction in left ventricular ejection fraction (LVEF) of −3.5%±6.0 from baseline, also with no differences between groups.

[1] = No SoC Withdrawal Group, Post (Week 24)
[2] = No SoC Withdrawal Group, Pre (Week 12)
[3] = No SoC Withdrawal Group, Week 24 vs Week 12
[4] = Successful SoC Withdrawal Group, Post SoC withdrawal
[5] = Successful SoC Withdrawal Group, Pre SoC withdrawal
[6] = Successful SoC Withdrawal Group, post vs pre
[7] = of the 68 who underwent withdrawal attempt
[8] = successful SoC withdrawal cohort vs no SoC withdrawal

## CCc1nc(-c2ccc3c(c2)CC[C@H]3NC(=O)c2cnn(C)c2)no1 [aficamten, (R)—N-(5-(5-ethyl-1,2,4-oxadiazol-3-yl)-2,3-dihydro-1H-inden-1-yl)-1-methyl-1H-pyrazole-4-carboxamide]
[1]
  KCCQ CSS, Mean (SD): 88.5 (12.55)
  LVEF, Mean (SD): 64.4 (5.3) %
  LVOT-G, Rest, Mean (SD): 14.0 (12.6) mmHg
  LVOT-G, Valsalva, Mean (SD): 32.2 (25.2) mmHg
  NT-proBNP, median: 158.5 pg/mL
  NYHA class I: I: 35 (54.7%) n(%)
  NYHA class III: III: 2 (3.1%) n(%)
  NYHA class IV: IV: 0 n(%)
  hs-cardiac-TnI, median: 6.3 ng/L
[2]
  KCCQ CSS, Mean (SD): 87.3 (13.12)
  LVEF, Mean (SD): 65.3 (4.9) %
  LVOT-G, Rest, Mean (SD): 19.5 (17.6) mmHg
  LVOT-G, Valsalva, Mean (SD): 42.2 (26.0) mmHg
  NT-proBNP, median: 191.5 pg/mL
  NYHA class I: I: 34 (53.19%) n(%)
  NYHA class III: III: 3 (4,7%) n(%)
  NYHA class IV: IV: 0 n(%)
  hs-cardiac-TnI, median: 7.6 ng/L
[3]
  KCCQ CSS, change: 1.2
  LVEF, change: −0.9%
  LVOT-G, Rest, change: −5.5 mmHg
  LVOT-G, Valsalva, change: −10.0 mmHg
  NT-proBNP, change: -3.0 pg/mL
  hs-cardiac-TnI, change: -0.5 ng/L
[4]
  KCCQ CSS, Mean (SD): 83.8 (18.18)
  LVOT-G, Rest, Mean (SD): 16.6 (13.7) mmHg
  LVOT-G, Valsalva, Mean (SD): 35.6 (29.1) mmHg
  NT-proBNP, median: 250.0 pg/mL
  NYHA class I: I: 26 (46.4%) n(%)
  NYHA class II: II: 26 (46,4%) n(%)
  NYHA class III: III: 4 (7.1%) n(%)
  NYHA class IV: IV: 0 n(%)
  hs-cardiac-TaI, median: 5.8 ng/L
Successful SoC Withdrawal Group, Post SoC withdrawal, site read echo
  LVEF, Mean (SD): 65.5 (6.4) %
[5]
  KCCQ CSS, Mean (SD): 80.2 (17.20)
  LVOT-G, Rest, Mean (SD): 13.2 (11.0) mmHg
  LVOT-G, Valsalva, Mean (SD): 27.9 (22.4) mmHg
  NT-proBNP, median: 330.0 pg/mL
  NYHA class I: I: 23 (41.1%) n(%)
  NYHA class II: II: 25(44.6%) n(%)
  NYHA class III: III: 8(14.3%) n(%)
  NYHA class IV: IV: 0 n(%)
  hs-cardiac-TaI, median: 5.8 ng/L
Successful SoC Withdrawal Group, Pre SoC withdrawal, site read echo
  LVEF, Mean (SD): 64.8 (5.8) %
[6]
  KCCQ CSS, change (95% CI): 3.5 (−0.5, 7.5)
  LVEF, change: 0.6%
  LVOT-G, Rest, change: 3.4 mmHg
  LVOT-G, Valsalva, change (95% CI): 7.7 (0.8, 14.6), mmHg
  NT-proBNP, change: -68.0 pg/mL
  hs-cardiac-TaI, change: 0.0 ng/L
human, in vivo
  monotherapy patients who later restarted a SoC medication: 13.2%
  serious AEs attributed to SoC withdrawal: no serious AEs
[7]
  patients achieving aficamten monotherapy: 44.1%
  patients achieving successful SoC withdrawal (at least 50% dose-reduction in one medication): 92.6%
  patients completely discontinuing at least one SoC medication: 61.8%
overall
  reduction in LVEF from baseline (mean±SD): −3.5%
[8]
  KCCQ CSS, Δ change between cohorts at Week 24: 2.3
  LVEF, Δ change between cohorts at Week 24: 1.5%
  LVOT-G, Rest, Δ change between cohorts at Week 24: 8.9 mmHg
  LVOT-G, Valsalva, Δ change between cohorts at Week 24: 17.7 mmHg
  NT-proBNP, Δ change between cohorts at Week 24: -65.0 pg/mL
  hs-cardiac-TnI, Δ change between cohorts at Week 24: 0.5 ng/L
